Legend:
[1] = tested on: A2780; experiment: Clonogenic survival assay; format: cell-based; settings: Homo sapiens; A2780 (p53 wt), 24 h treatment, colonies after at least 10 days
Protocol: (§1) Cancer cells (200-300 cells/well) were seeded in 6-well culture dishes and allowed to adhere overnight. For 5-FdU, cells were treated for 24 h, then gently washed with PBS, and incubated with fresh media for at least 10 days to allow individual colonies to form. […] After 10-18 days, the plates were stained with methylene blue. Colonies containing ≥50 cells were counted. The percentage of survival was determined relative to untreated control averaged over 3 independent experiments.

[2] = tested on: A375; experiment: Clonogenic survival assay; format: cell-based; settings: Homo sapiens, A-375; A375 (p53 wt), 24 h treatment, colonies after at least 10 days
Protocol: as §1

[3] = tested on: DLD1 cells; experiment: DNA fiber assay (replication fork progression); format: cell-based, human; settings: 100 nM 5-FdU 24 h; for reduction of mean fiber length: vs untreated
Protocol: DNA fiber analysis was performed as described by Han et al. (J. Biol. (2015) 290:12370-8). Cells treated with 100 nM 5-FdU for 24 h were pulse-labeled with 100 μM chlorodeoxyuridine (CIdU) for 20 minutes, washed with PBS, and 25 μM Iododeoxyuridine (IdU) for 20 minutes. Cells were collected in PBS, and 2.5 μL of cell suspension was dropped on glass slide. 7.5 μL of lysis buffer (0.5% SDS, 200 mM Tris-HCl pH 7.4, 50 mM EDTA) was dropped on the cell suspension and lysis for 10 minutes. Slides were then tilted at 15° to spread the suspension and placed horizontally to allow air-dry. After drying, slides were fixed in 3:1 methanol:acetic acid for 15 minutes, washed with water, and placed at −20° C. overnight. Slides were then treated with 2.5 M HCl for 1 h, washed with PBS containing 0.1% Tween-20, washed twice with PBS, blocked in PBS containing 5% BSA and 0.1% Tween 20 for 20 minutes, and rinsed with PBS three times. After washing, 100 μL primary antibodies: mouse anti-BrdU/IdU (Becton Dickinson, 1:100) and rat anti-BrdU/CIdU (AbD Serotec, 1:400) diluted in PBS containing 5% BSA and 0.1% were added to incubate in a humid chamber for 4-6 h. After incubation, slides were washed with PBS three times, incubated with secondary fluorescent antibodies: sheep anti-mouse Alexa Fluor 488 (Life technologies) and donkey anti-rat Alexa Fluor 594 (Life technologies) diluted in PBS containing 5% BSA for 1 h. Slides were washed with PBS three times and mounted with Vectashield mounting medium. Image acquisition was performed on a Leica laser microscope. DNA fiber length was measured by using ImageJ software (NCl/NIH).

[4] = tested on: DLD1 cells; experiment: Cell cycle and BrdU/PI labeling analysis; format: cell-based, human; settings: for cell cycle progression (PI staining): 100 nM 5-FdU; for cell cycle profile (BrdU and PI co-staining): 100 nM 5-FdU 24 h
Protocol: For cell cycle analysis, DLD1 cells were synchronize by serum starvation for 48 h and released in fresh media for 16 h. The cells were then treated with 100 nM 5-FdU for 4, 8, 12, 20, 24, 28, 32, 36, 48, 72, and 96 h. At each time point, cells were harvested and fixed with methanol. Fixed cells were incubated with DNase-free RNaseA (Roche) and stained with 50 μg/mL PI solution (Sigma-Aldrich). For BrdU/PI labeling analysis, cells were treated with 100 nM 5-FdU for 24 h and pulsed with 10 μM BrdU (BD Biosciences Pharmingen, BrdU Flow Kit) for 45 minutes before collecting cells. According to manufacturer's instructions from BD Biosciences Pharmingen, cells were fixed, treated with DNAse for 1 h at 37° C., stained with FITC anti-BrdU for 20 minutes, and incubated with PI staining solution (50 μg/mL PI, 10 mM Tris-HCl pH 7.5, 5 mM MgCl2, 10 μg/mL DNase-free RNaseA) for 30 minutes at 37° C. For both assays, cells were analyzed on a BD LSRII instrument.

[5] = tested on: HCT116 p53 KO cells
Text: p53 or UDG knockdown was achieved via shRNA transduction. Lentiviral vectors LV-THM-shp53 (which also expresses a GFP reporter) or LV-Bleo-shp53 to perform p53 KD in WT HCT116 cells were obtained from Case Western Reserve University, Cleveland, Ohio Lentiviral vector targeting GFP (sh-GFP) was used as control. UDG shRNA vectors (shUDG: NM_003362.2-656s21c1, shUDG-2: NM_003362.2-758s21c1, and shUDG-3: NM_003362.2-893s21c1) were purchased from Sigma, and a scramble targeting shRNA vector (Sigma) was used as paired control. The lentiviral production and infection were performed as previously described. Cells stably infected with LV-THM-p53 were isolated by cell sorting on the basis of their GFP expression.
as §1

## O=c1[nH]c(=O)n([C@H]2C[C@H](O)[C@@H](CO)O2)cc1F [5-FdU, 5-fluorodeoxyuridine]
[1]
  IC50: 1.32 ± 0.33 nM
[2]
  IC50: 111 ± 1.8 nM
[3]; UDG depleted cells
  mean fiber length of nascent DNA strands: 2.8 μm
  reduction of mean fiber length: 63%
[3]; shSCR-transfected cells
  mean fiber length of nascent DNA strands: 5.7 μm
  reduction of mean fiber length: 23%
[4]; synchronized DLD1 UDG depleted, late G1 and early S phase, lasted 48 h
  cell cycle progression (PI staining): strong cell cycle arrest
[4]; synchronized DLD1 shSCR, through S phase by 36 h
  cell cycle progression (PI staining): slowed the progression
[4]; unsynchronized DLD1 shSCR
  cell cycle profile (BrdU and PI co-staining): S phase arrest especially at middle and late S phase
[4]; unsynchronized DLD1 shUDG
  cell cycle profile (BrdU and PI co-staining): arrested at late G1 and early S phase
[5]; HCT116 p53 KO vs p53 WT
  resistance compared with p53 WT cells: more resistant
[5]; HCT116 p53 KO, shUDG vs shSCR
  effect of UDG depletion on cytotoxicity: greatly enhanced cytotoxicity

Reference: US10722530B2, “Methods of diagnosing and treating cancer” (CASE WESTERN RESERVE UNIVERSITY, priority 2016, dated 2020)
